The results in this text go back to patent publication US20050250677A1, “Glycopeptide antibiotic derivatives” (priority 2002, published 2005).

Each structure is given as a SMILES string. Like-named read-outs stand apart in the source and are kept apart here.

One series relates to Vero cells. Conditions: read-out: CC50 Vero.
Another series has as its system FCV. Briefly: Feline corona virus assay in Feline Crandel kidney cells (MTS). The class given is cell-based. As to the method:
Feline Crandel kidney cells were seeded in 96-well microtiter plates at 24,000 cells/well. Then, 24 hrs later, an appropriate inoculum of FCV is added together with 5-fold dilutions of the test compounds. After 4 days, a MTS/PMS solution was added to each well. Following a 90 min incubation period at 37° C., the optical density of the wells was read at 498 nm in a microplate reader.

The subject of another series is HIV-2(ROD). Briefly: Inhibition of HIV-2 (ROD)-induced cytopathicity (giant cell formation) in CEM cells. The class given is cell-based. The procedure:
(§1) A variety of glycopeptide antibiotic derivatives of vancomycin, eremomycin and teicoplanin including their aglycon derivatives were evaluated for their inhibitory activity against HIV-1 (IIIB) and HIV-2(ROD) in CEM cell cultures.
In general terms: Damage to the host cells serves as the signal in cytopathic effect assays.

The next series relates to HIV-1 (IIIB). Briefly: Inhibition of HIV-1 (IIIB)-induced cytopathicity (giant cell formation) in CEM cells. The class given is cell-based. The procedure: as §1
In series [1] the test system is SARS virus (strain Frankfurt-1). Briefly: microbe, parasite or virus in culture. The series is classed as cell-based, human corona (SARS) virus.
Another series deals with murine leukemia L1210. Briefly: Cytostatic activity assay, L1210 cells. The series is classed as cell-based. Conditions: read-out: IC50 L1210 (compound concentration required to inhibit tumor cell proliferation by 50%).
In another series the test system is human lymphocyte CEM. Briefly: Cytostatic activity assay, CEM cells. The class given is cell-based. Conditions: read-out: IC50 CEM (compound concentration required to inhibit tumor cell proliferation by 50%).
Series [2] has as its system human lymphocyte Molt4/clone 8. Briefly: Cytostatic activity assay, Molt4/clone 8 cells. The note with it: read-out: IC50 Molt4/C8 (compound concentration required to inhibit tumor cell proliferation by 50%). The series is classed as cell-based.
The mark [3] stands for this setting: FCV in FCK cells, read-out: EC50 FCV.
[4] abbreviates: read-out: EC50 HIV-2 (concentration required to inhibit HIV-induced giant cell formation by 50%), HIV-2, CEM cell cultures.
[5] abbreviates: HIV-1 (IIIB), CEM cell cultures, read-out: EC50 against HIV-1.
Setting [6] is: read-out: EC50 HIV-1 (concentration required to inhibit HIV-induced giant cell formation by 50%), HIV-1, CEM cell cultures.
Where [7] appears, read: SARS virus in Vero cells, read-out: EC50 SARS virus.

As for `CCCCc1ccc(CN2CCN(Cc3c(O)cc4c(c3O)-c3cc(ccc3O)C3NC(=O)C5NC(=O)C(CC(N)=O)NC(=O)C(NC(=O)C(CC(C)C)NC)C(O)c6ccc(c(Cl)c6)Oc6cc5cc(c6OC5OC(CO)C(O)C(O)C5OC5CC(C)(N)C(O)C(C)O5)Oc5ccc(cc5Cl)C(O)C(NC3=O)C(=O)NC4C(=O)O)CC2)cc1` (stereo not drawn) [Compound 1], the CC50 in the series on Vero cells is greater than 100 µM; in the series on FCK cells (read-out: CC50 FCK, FCK cells), greater than 50 µM. The EC50 with FCV (setting [3]) is 30 µM; with FCV (read-out: EC50 against FCV), 30 to 43 µM; in the series with HIV-2(ROD) (setting [4]), 22 ± 3.5 µM; in the series with HIV-1 (IIIB) (setting [5]), 5.5 µM; in the series on HIV-1 (IIIB) (setting [6]), 12 ± 3.5 µM; in series [1] (setting [7]), 43 µM. Besides, the EC50 in [1] (read-out: EC50 against SARS virus) lay within 30 to 43 µM. The results for the IC50 (in the series on murine leukemia L1210; with human lymphocyte CEM; in series [2]) were 53 ± 9 µM, greater than 100 µM and greater than 100 µM, respectively.
For `COC(=O)C1NC(=O)C2NC(=O)C(NC(=O)C(N)c3cc(Oc4ccc(CC(NC(=O)OCc5ccccc5)C(=O)O)cc4Cl)c(O)c(c3)Oc3ccc(cc3Cl)C2O)c2ccc(O)c(c2)-c2c1cc(O)c(CNC1C3CC4CC(C3)CC1C4)c2O` (stereo not drawn) [Compound 54], the CC50 with Vero cells is greater than 100 µM; with FCK cells it was greater than 50 µM. The EC50 in the series with FCV (setting [3]) amounted to 19 µM; with HIV-2(ROD) (setting [4]) it was 37 ± 18 µM; with HIV-1 (IIIB) (setting [6]), 17 ± 3.5 µM; in [1] (setting [7]), 47 µM. The IC50 was 181 ± 4 µM with murine leukemia L1210, greater than 250 µM in the series on human lymphocyte CEM and greater than 250 µM in series [2].
Turning to `NC1C(=O)NC2Cc3ccc(c(Cl)c3)Oc3cc4cc(c3O)Oc3ccc(cc3Cl)C(O)C3NC(=O)C(NC(=O)C4NC(=O)C(NC2=O)c2cc(O)cc(c2)Oc2cc1ccc2O)c1ccc(O)c(c1)-c1c(O)cc(O)cc1C(C(=O)NCC12CC4CC(CC(C4)C1)C2)NC3=O` (stereo not drawn) [Compound 166], the CC50 in the series on Vero cells is greater than 100 µM; in the series with FCK cells (read-out: CC50 FCK, FCK cells), 49 µM. For the same compound, the EC50 in the series on FCV (setting [3]) worked out at 8.5 µM; in the series with HIV-2(ROD) (setting [4]), 7 µM; in the series on HIV-1 (IIIB) (setting [6]) it was 1.8 ± 0.58 µM; in series [1] (setting [7]), 31 µM. Moreover, the IC50 in the series on murine leukemia L1210 came out at 91 ± 2 µM; in the series with human lymphocyte CEM it was 125 ± 30 µM; in [2] it was 112 ± 2 µM.
Take `CC(NC(=O)C1NC(=O)C2NC(=O)C(NC(=O)C3NC(=O)C4NC(=O)C(Cc5ccc(c(Cl)c5)Oc5cc3cc(c5O)Oc3ccc(cc3Cl)C2O)NC(=O)C(N)c2ccc(O)c(c2)Oc2cc(O)cc4c2)c2ccc(O)c(c2)-c2c(O)cc(O)cc21)C12CC3CC(CC(C3)C1)C2` (stereo not drawn) [Compound 160]: the CC50 in the series with Vero cells was greater than 100 µM; in the series with FCK cells (read-out: CC50 FCK, FCK cells) it was 56 µM. Moreover, the EC50 in the series with FCV (setting [3]) was found to be 4.5 µM; with HIV-2(ROD) (setting [4]), 7.5 ± 0.7 µM; in the series with HIV-1 (IIIB) (setting [6]), 3.3 ± 1.4 µM; in series [1] (setting [7]), 27 µM. In addition, the IC50 with murine leukemia L1210 amounted to 92 ± 5 µM; with human lymphocyte CEM it was 106 µM; in series [2], 97 ± 10 µM.
In the case of `NC1Cc2ccc(c(Cl)c2)Oc2cc3cc(c2O)Oc2ccc(cc2Cl)C(O)C2NC(=O)C(NC(=O)C3NC(=O)C(c3cc(O)cc(Oc4cc(C5NC(=S)N(c6ccccc6)C5=O)ccc4O)c3)NC1=O)c1ccc(O)c(c1)-c1c(cc(O)c(CNC3C4CC5CC(C4)CC3C5)c1O)C(C(=O)O)NC2=O` (stereo not drawn) [Compound 55], the CC50 in the series with Vero cells and in the series on FCK cells was greater than 100 µM in each case. The EC50 in the series on FCV (setting [3]) came to 22 µM; with HIV-2(ROD) (HIV-2(ROD), CEM cell cultures, read-out: EC50 against HIV-2), 17 µM; in the series with HIV-1 (IIIB) (setting [5]) it was 13 µM; in series [1] (setting [7]), 31 µM. Also, the figures for the IC50 (in the series on murine leukemia L1210; with human lymphocyte CEM; in series [2]) were 73 ± 24 µM, 242 ± 11 µM and no less than 250 µM, respectively.
Regarding `COC(=O)C1NC(=O)C2NC(=O)C(NC(=O)C(NC(=O)OC(C)(C)C)c3cc(Oc4ccc(CC(NC(=O)OCc5ccccc5)C(=O)O)cc4Cl)c(O)c(c3)Oc3ccc(cc3Cl)C2O)c2ccc(O)c(c2)-c2c1cc(O)c(CNC1C3CC4CC(C3)CC1C4)c2O` (stereo not drawn) [Compound 53], the CC50 in the series with Vero cells is greater than 100 µM; with FCK cells, no less than 100 µM. For the same compound, the EC50 in the series with FCV (setting [3]) came out at 36 µM; in the series on HIV-2(ROD) (setting [4]), 11 ± 5.7 µM; in the series with HIV-1 (IIIB) (setting [6]), 17 ± 3.5 µM; in [1] (setting [7]), 29 µM. In addition, the IC50 in the series with murine leukemia L1210 is 95 ± 10 µM; with human lymphocyte CEM, 240 ± 13 µM; in [2], 122 ± 13 µM.

As a reminder, the CC50 is the concentration that lowers cell viability or growth by half.
